According to article PMC5300155, “Biochemical and biophysical investigations of the interaction between human glucokinase and pro-apoptotic BAD” (PLoS ONE, 2017):

Molecular target: T1, GCK (Homo sapiens, UniProt P35557)
T1 construct: hexahistidine (N); made in house; host or cells: glucokinase auxotroph BM5340(DE3)
T1 sequence (P35557 1-465): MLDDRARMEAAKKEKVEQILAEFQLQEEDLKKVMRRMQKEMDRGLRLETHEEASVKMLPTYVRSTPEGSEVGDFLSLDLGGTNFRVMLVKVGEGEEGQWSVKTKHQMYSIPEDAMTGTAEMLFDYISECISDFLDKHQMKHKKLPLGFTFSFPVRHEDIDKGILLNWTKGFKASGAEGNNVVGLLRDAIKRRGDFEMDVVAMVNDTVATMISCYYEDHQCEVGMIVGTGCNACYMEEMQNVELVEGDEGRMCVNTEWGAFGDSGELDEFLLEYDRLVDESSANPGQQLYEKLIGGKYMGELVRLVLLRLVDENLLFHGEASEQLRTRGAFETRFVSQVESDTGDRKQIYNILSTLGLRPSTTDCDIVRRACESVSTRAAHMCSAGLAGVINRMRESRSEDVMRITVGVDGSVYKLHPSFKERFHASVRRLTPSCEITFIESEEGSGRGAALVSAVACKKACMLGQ
Test: GCK activity, microplate G6PDH-linked assay as described by Szlyk et al. (37°C)
Format: biochemical
Settings: GCK 7.5 nM; for Effect on GCK Vmax: either assay (routine and Szlyk microplate), peptide 5 μM, 37°C in microplate assay
Protocol: Steady state kinetics were also performed as described by Szlyk, et al.[13]. Briefly, G6PDH-linked assays were performed in clear 96-well plates at 37°C with a SpectraMax M5 microplate reader (Molecular Devices) recording absorbance at 340 nm every 30 s. Reaction mixtures contained GCK (7.5 nM), HEPES (100 mM, pH 7.4), KCl (150 mM), MgCl2(6 mM), DTT (1 mM), NAD (1 mM), BSA (0.05%), G6PDH (2.5 U), glucose (0.5–100 mM), and ATP (5 mM) in the presence or absence of BAD-GST S118D variant (5 μM) or phosphorylated BAD BH3 peptide (5 μM) in a final volume of 100 μL.
GCK (7.5 nM) was assayed in the presence of A. S118D BADGST (5 μM) or B. pBH3 (5 μM) in a 96 well plate using a microplate reader. Buffer conditions were as follows: Ref [13]: 100 mM Hepes, pH 7.4; 150 mM KCl; 1 mM NAD+; 0.05% BSA; 6 mM MgCl2; 1 mM DTT; 2.5 U G6PDH; 5 mM ATP. Optimal GCK conditions: 100 mM Hepes, pH 7.4; 150 mM KCl; 1 mM NADP+; 6 mM MgCl2; 10 mM DTT; 1.5 U G6PDH; 5 mM ATP. (EPS) Click here for additional data file.

For “NLWAAQRYGRELRRM(p)SDKFVD [pBH3, 21-residue phosphorylated peptide containing the BH3 domain of BAD]”, the “Effect on GCK kinetics under Szlyk et al. buffer conditions” value (S118D BADGST 5 μM, or pBH3 5 μM, 96 well plate, S2 Fig) was “did not increase BAD’s effects on GCK kinetics”, the “Effect on GCK Vmax” value (listed as phosphorylated BAD BH3 peptide) was “no statistically significant difference in the GCK Vmax value” and the “Effect on GCK Vmax” value (listed as phosphorylated BH3 peptide) was “lack of an increase in the GCK Vmax value”.
